Reference: publication PMC11249626, “Fluorophore-Labeled Pyrrolones Targeting the Intracellular Allosteric Binding Site of the Chemokine Receptor CCR1” (ACS Pharmacology & Translational Science, 2024)

Target: T1, CCR9 (Homo sapiens, UniProt P51686)
T1 construct: host or cells: HEK293T, transient
T1 sequence (P51686 1-369): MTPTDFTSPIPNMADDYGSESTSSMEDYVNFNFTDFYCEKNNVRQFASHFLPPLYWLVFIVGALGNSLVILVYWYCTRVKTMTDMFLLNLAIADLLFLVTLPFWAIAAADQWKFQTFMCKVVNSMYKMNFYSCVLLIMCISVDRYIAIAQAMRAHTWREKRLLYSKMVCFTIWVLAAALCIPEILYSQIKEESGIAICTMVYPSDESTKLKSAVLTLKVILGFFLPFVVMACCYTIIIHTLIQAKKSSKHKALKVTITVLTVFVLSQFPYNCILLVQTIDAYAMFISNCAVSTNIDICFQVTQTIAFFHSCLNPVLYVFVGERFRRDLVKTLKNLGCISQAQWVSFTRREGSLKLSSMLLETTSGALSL
Experiment: Membrane-based NanoBRET saturation binding assay, CCR9_Nluc membranes
Settings: compared with CCR1
Method: Emission spectra of Nluc -labeled CCR1 (CCR1_Nluc) protein: The emission spectra of CCR1_Nluc has already been reported by Toy et al.1 For a confirmation of the reported data with new CCR1_Nluc membrane batches, furimazine (Promega, Mannheim, Germany 1:2000) was added to the membrane preparations (2 µg protein/well). […]
NanoBRET binding assays: Membrane-based NanoBRET saturation assay: For the establishment of our NanoBRET binding assay, we referred to recently published protocols. […]
Then, 20 µL of the membrane preparations diluted in assay buffer (3 µg total protein/well) were added and the plates were incubated for 90 min at 37 °C. Subsequently, 5 µL of a furimazine solution (Promega, Mannheim, Germany, final assay dilution: 1:5,000) were added to each well (final assay volume: 35 µL) before measuring luminescence with a CLARIOstar microplate reader using 620/10 nm and 475/30 nm emission filters after 5 min of incubation in the dark. Bioluminescence resonance energy transfer (BRET) was determined as the ratio of acceptor fluorescence and donor luminescence. […] Specific binding signals were calculated as a difference of total and non-specific binding. If required, netBRET values were calculated as the difference between total BRET values and the values obtained in the absence of a fluorescent ligand. […]

CN(C)c1ccc2c(-c3cc(C(=O)NCCOCCOCc4cn(CCCC(=O)C5=C(O)C(=O)N(c6ccc(Br)cc6F)C5C5CCCCC5)nn4)ccc3C(=O)[O-])c3ccc(=[N+](C)C)cc-3oc2c1 (stereo not shown) [compound 12]
Binding signal for CCR9: much weaker
